Data taken from publication PMC6811774, “Potent, selective, and subunit‐dependent activation of TRPC5 channels by a xanthine derivative” (British Journal of Pharmacology, 2019).
Several values for one entry are separate records, joined by “and”; a condition that tells them apart may be missing. Equal values may be shown once.

Experiments:
[1] = target: T1, TRPC5-SYFP2 (TRPC5:C5 channels) (Homo sapiens, UniProt Q9UL62); test: [Ca2+]i measurement (Fura-2, FlexStation) in (Tet+) HEK T-REx cells expressing hTRPC5-SYFP2; format: cell-based
T1 construct: expressed in transfected cells
T1 sequence (Q9UL62 1-973): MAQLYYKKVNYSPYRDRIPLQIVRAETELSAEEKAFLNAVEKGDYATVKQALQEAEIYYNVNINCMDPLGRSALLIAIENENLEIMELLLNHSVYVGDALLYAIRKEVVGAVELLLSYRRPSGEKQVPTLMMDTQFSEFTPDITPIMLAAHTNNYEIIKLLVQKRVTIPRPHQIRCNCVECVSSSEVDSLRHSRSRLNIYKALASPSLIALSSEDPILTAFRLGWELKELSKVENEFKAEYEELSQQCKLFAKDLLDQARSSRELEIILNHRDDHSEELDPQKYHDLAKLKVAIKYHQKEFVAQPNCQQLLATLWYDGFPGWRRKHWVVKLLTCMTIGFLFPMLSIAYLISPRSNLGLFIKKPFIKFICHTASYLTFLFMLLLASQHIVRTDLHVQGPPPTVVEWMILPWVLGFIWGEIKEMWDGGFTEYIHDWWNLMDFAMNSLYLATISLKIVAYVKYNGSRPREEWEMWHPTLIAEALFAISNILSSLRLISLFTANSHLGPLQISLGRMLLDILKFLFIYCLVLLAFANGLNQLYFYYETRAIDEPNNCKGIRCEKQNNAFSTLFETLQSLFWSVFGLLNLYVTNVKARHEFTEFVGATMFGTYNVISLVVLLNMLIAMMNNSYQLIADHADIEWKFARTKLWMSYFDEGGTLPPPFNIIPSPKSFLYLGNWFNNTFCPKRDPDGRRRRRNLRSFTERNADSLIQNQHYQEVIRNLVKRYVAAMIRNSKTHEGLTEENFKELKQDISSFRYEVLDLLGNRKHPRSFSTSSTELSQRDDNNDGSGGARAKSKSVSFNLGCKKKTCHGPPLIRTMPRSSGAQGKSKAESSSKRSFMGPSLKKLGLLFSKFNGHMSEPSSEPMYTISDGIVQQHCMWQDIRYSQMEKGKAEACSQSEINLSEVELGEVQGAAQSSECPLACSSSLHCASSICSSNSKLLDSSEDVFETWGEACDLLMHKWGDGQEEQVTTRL
Source text: To facilitate cloning of TRPC5‐SYFP2 and TRPC4‐SYFP2, a pcDNA™4/TO expression vector (ThermoFisher Scientific, Waltham, MA, USA), into which a four amino acid linker (ASAS) flanked by AgeI and SacII restriction sites had been introduced between EcoRI and XhoI restriction sites, was used (Naylor et al., 2016). Human TRPC4β was inserted between BamHI and AgeI restriction sites as described previously (Ludlow et al., 2017). Human TRPC5 (forward primer: 5′ GCTTGGTACCGCCACCATG 3′ and reverse primer: 5′ […] 3′) was inserted upstream of the linker between KpnI and AgeI restriction sites using hTRPC5/pcDNA™4/TO (Zeng et al., 2004) as a PCR template. Both constructs contained an N‐terminal Kozak sequence. SYFP2 was inserted downstream of the linker between SacII and XbaI restriction sites using pSYFP2‐C1 as a PCR template (forward primer, 5′ […] 3′; reverse primer, 5′ […] 3′). pSYFP2‐C1 was a gift from Dorus Gadella (Addgene plasmid #22878; http://n2t.net/addgene:22878; RRID:Addgene_22878; Kremers, Goedhart, van Munster, & Gadella, 2006). Plasmids were sequenced to verify identity.
HEK T‐REx™ cell line was transfected with TRPC5‐SYFP2 or TRPC4‐SYFP2 using FuGENE® HD transfection reagent. After 48 hr, cells were put under antibiotic selection using 400 μg·ml^−1 zeocin and 10 μg·ml^−1 blasticidin S (Invivogen, San Diego, California, USA). Medium changes were carried out regularly to remove dead cells. HEK T‐REx cells expressing tetracycline‐inducible human TRPC5, TRPC4–C1, and TRPC5–C1 were created as described previously (Akbulut et al., 2015; Ludlow et al., 2017; Rubaiy, Ludlow, Henrot, et al., 2017). TRPC5–C1 and TRPC4–C1 concatemers allow expression of functional channels with defined 2:2 stoichiometry that display ion permeability and current–voltage relationships distinct from those of homomeric TRPC4:C4 or TRPC5:C5 channels and consistent with those obtained upon co‐expression of TRPC1 with TRPC4 or TRPC5 (Ludlow et al., 2017; Rubaiy, Ludlow, Bon, & Beech, 2017; Rubaiy, Ludlow, Henrot, et al., 2017). Cells were cultured in DMEM‐F12 GlutaMAX (Invitrogen, Paisley, UK) containing 10% FBS (Sigma‐Aldrich, Gillingham, UK), with the addition of blasticidin (10 μg·ml^−1) and zeocin (400 μg·ml^−1) to maintain the stable incorporation of the tetracycline repressor and the channel of interest, respectively. Expression of proteins was induced by the addition of tetracycline (1 μg·ml^−1, 24 hr). Cells were maintained in a humidified incubator with 5% CO2 at 37°C. HEK 293 cells stably expressing tetracycline‐regulated human http://www.guidetopharmacology.org/GRAC/ObjectDisplayForward?objectId=494 were prepared similarly and have also been described previously (McHugh, Flemming, Xu, Perraud, & Beech, 2003). For experiments using transient co‐expression of TRPC1 and TRPC5, HEK cells at 40–60% confluency were transfected with pIRES2‐AcGFP1 and pIRES2‐DsRed‐Express2 plasmids containing human TRPC1 and TRPC5, respectively, using Lipofectamine 3000 (ThermoFisher Scientific, Yokohama, Japan). All experiments using transient expression were performed within 48 hr after transfection. A498 cells were cultured in Minimum Essential Medium containing Earle's salts (ThermoFisher Scientific, Loughborough, UK), supplemented with 10% FBS and penicillin–streptomycin (100 units per ml^−1, 100 μg·ml^−1; ThermoFisher Scientific, Loughborough, UK). CHO cells stably expressing http://www.guidetopharmacology.org/GRAC/ObjectDisplayForward?objectId=510 were maintained in Ham's Nutrient Mixture F12 (ThermoFisher Scientific, Loughborough, UK) supplemented with 10% FBS, penicillin–streptomycin, and 1 mg·ml^−1 G418 (InvivoGen, San Diego, California, USA). For experiments using hTRPC3 and hTRPC6, WT HEK 293 cells were transfected with hTRPC3 (Naylor et al., 2016) or hTRPC6 (cloned into pcDNA3) using jetPRIME® transfection reagent (VWR, Lutterworth, UK). Cells were assayed 48 hr after transfection. […]

TRPC5:C5 = tested on: TRPC5:C5; design: method as in Rubaiy, Ludlow, Henrot, et al., 2017; details: EA-mediated activation, 10 nM EA; ref Rubaiy, Ludlow, Henrot, et al., 2017; read-out: IC50, inhibition of TRPC5:C5; cited from earlier work

Compound: Cn1c(=O)n(CCCO)c(=O)c2c1nc(Oc1cccc(OC(F)(F)F)c1)n2Cc1ccc(Cl)cc1 [Pico145, reference compound]
- IC50 [1]: 2 nM
- Concentration giving maximal inhibition of AM237 response ([1]; 100 nM AM237): 10 nM
- Hill slope, inhibition of AM237 response ([1]; 100 nM AM237): –1.3
- Mode of inhibition of AM237-mediated TRPC5:C5 activation ([1]; surmountable, parallel rightward shifts, confirmed by patch-clamp): competitive antagonist
- IC50 (TRPC5:C5): 1 nM and ~1 nM
